Experimental data taken from patent US20240082221A1, “COMPOSITIONS AND METHODS FOR THE IDENTIFICATION OF COMPOUNDS THAT PROTECT AGAINST LIPOFUSCIN CYTOTOXICITY” (priority 2021, published 2024).
Entries after “also recorded” stand apart in the source; their conditions may differ.

Legend:
ARPE-19 cells [1] = tested on: ARPE-19 cells
Procedure: Cell Viability Assay. […] 1× AlamarBlue solution prepared in OptiMEM was used to replace the media supernatant and the plate's fluorescence was determined at 555 nm excitation/585 nm emission with a SpectraMax M (Molecular Devices, CA, USA), after 1 h. […] The exact timing of appearance of far-red (DRAQ7=plasma membrane leakage) and blue (NUC405=caspase 3 activation) fluorescence signals was critical to differentiate apoptosis and necrosis from secondary events, such as membrane damage and generalized proteolytic activation during the late phase of apoptosis and necrosis, respectively.
Real time monitoring of necrotic and apoptotic cell-death. Cell-death assay to study Lipofuscin's dark toxicity was performed. 90% confluent ARPE-19 or hfRPE were incubated overnight in serum free media supplemented with indicated LB concentration. Viability was assessed at 24 hrs by AlamarBlue®, or microscopy with NUC405/DRAQ7. Real time monitoring of necrotic (red) and apoptotic (blue) cell-death was performed by automated fluorescence microscopy. The exact timing of appearance of far-red (DRAQ7=plasma membrane leakage) and blue (NUC405=caspase 3 activation) fluorescence signals was critical to differentiate apoptosis and necrosis from secondary events, such as membrane damage and generalized proteolytic activation during the late phase of apoptosis and necrosis, respectively.
Chemical inhibitors. Chemical inhibitors used in this study are described in FIG. 12.

human MLKL = experiment: Western blot of Ser358 phospho-MLKL, phosphorylation and polymerization of MLKL; assay type: cell-based; conditions: absence of light
Procedure: (§1) Immunoblotting. Total cell lysates were extracted using RIPA lysis buffer (50 mM TrisHCl, Ph 8.0, 150 mM NaCl, 1% NP40, 0.5% Sodium Deoxycholate, 0.1% SDS, protease-phosphatase inhibitor) after the incubation of the specific sample group in a 48 well plate. Sonication or syringing (20 times) was done followed by centrifugation at 12,000×g for 10 mins and the supernatant was collected and stored in −80° C. Proten concentration from homogenates were assessed by Pierce Rapid Gold BCA protein assay kit (ThermoFisher Scientific, cat.no. A53225). Then 30 μg of protein was analyzed by standard SDS-PAGE gel. Samples were mixed 4:1 (v:v) with Nupage loading buffer with or without 8% 0-mercaptoethanol and heated for 10 min at 72° C. SDS-PAGE was done using 4-12% Nupage gel and buffer (Life, NP0335BOX). Next, SDS-PAGE gel was transferred to nitrocellulose membrane (Whatman, PROTAN BA83) overnight at 20V. The following day, 5% milk in TBS was used for 2 h blocking the membrane and then primary antibody was added in TBST (TBS, 0.1% Tween-20) for overnight at 4° C. Next day membranes were washed and incubated for 2 hours at room temperature with HRP conjugated secondary antibody (cat #G21234, Invitrogen) at 1:10,000 dilution. After 3 more washed membranes were probed with enhanced chemiluminescence (ECL) reagent and detected using an X-ray films for chemiluminescence image (GE healthcare, RPN2106). Scanning/imaging and quantitation of the image was done using silverfast 8 application software and Fiji Image J. Antibodies for Western blotting were list in FIG. 10.
For its phosphorylation, MLKL and its kinase need to be recruited into multiprotein complexes, known as necrosomes (FIG. 4O). Necrosomes are not well conserved among species and vary also with the nature of the stimuli that triggers their formation. […] Considering that phosphorylation of human MLKL at Ser358 (pMLKL), is a hallmark triggering event and marker of necroptosis, the Ser358-phosphorylation and polymerization status of MLKL in cells with LF was determined. […] A prerequisite for the assembly of these RIP kinases into necrosomes was their phosphorylation.

IRE1α [2] = experiment: qPCR of spliced XBP1 (XBP1s) as readout of IRE1α activity in ARPE-19; assay type: cell-based, Human
Excerpt: RNA isolation and quantitative PCR. Total RNA was extracted from cultured cells or mouse eye RPE layer using the RNeasy Mini kit (QIAGEN). The total RNA was digested with deoxyribonuclease I to prevent amplification of genomic DNA. The total RNA then was reversed transcribed using High-Capacity cDNA Reverse Transcription Kit (ThermoFisher Scientific, cat.no. 4368814) and analyzed gene expression using SYBR Green Master Mix (ThermoFisher Scientific, cat.no. 4472908) in an Applied Biosystems StepOne real time PCR machine. GAPDH was used as a reference gene. […] After genes were amplified by real time PCR, some of the PCR products were separated by 2.5% agarose gel.

cathepsin D = assay type: cell-based
Excerpt: (§2) Next, A2E buildups were imaged using a combination of DIC and fluorescence: A2E appeared as granules with well-defined edges, both within cells or after drying over a coverslip (FIGS. 14D and 14E). Next, the ability of the suspected A2E crystals to damage lysosomal membranes was investigated. A recently developed galectin-3 puncta assay for early detection of lysosomal membrane permeabilization (LMP) was used. Briefly, cytosolic galectin-3 rapidly binds to the glycocalyx in the luminal face of lysosomal membranes as they become leaky, which is easily detectable with anti-galectin high-affinity antibodies. L-Leucyl-L-Leucine methyl ester (LLO) a lysosomotropic peptide that causes LMP was used as positive control of puncta formation (FIG. 14E). […] LMP was confirmed by showing the […] of cathepsin D, as surrogate of lysosomal enzymes. […] Also, very remarkable was the observation that the same unique pattern of protection with arimoclomol and Nec-7 but not Nec-1 was observable for LLO (FIG. 14K), consistent with the idea that necroptosis by A2E is being caused by LMP.

lysosomal membranes = assay type: cell-based
Excerpt: as §2

[3] = Detection of lipid bisretinoids aggregation by filter passage; assay type: physicochemical
Excerpt: Detection of lipid bisretinoids aggregation.

[4] = tested on: UPR (PERK and ATF6 branches); experiment: Western blot of ER-stress markers (p-eIF2a, ATF4, BiP, ATF6) without illumination; assay type: cell-based, Human
Procedure: as §1
The causal link between LF accumulation and ER-stress without light assistance was analyzed (FIG. 6A). […] The activation of the IRE1α branch was visualized by qPCR.

Oxidative damage by H2O2 = assay type: cell-based
IRE1α [5] = experiment: Western blot of light-independent phosphorylation of IRE1α induced by LF; assay type: cell-based
Procedure: as §1, with “The following day, 5% milk in TBS was used for 2 h blocking the membrane and then primary antibody was added in TBST (TBS, 0.1% Tween-20) for overnight at 4° C. Next day membranes were washed and incubated for 2 hours at room temperature with HRP conjugated secondary antibody (cat #G21234, Invitrogen) at 1:10,000 dilution.” left out

pMLKL = experiment: Fluorescence microscopy of pMLKL plasma membrane translocation in ARPE-19 monolayers; assay type: cell-based, Human; conditions: ARPE-19 with A2E or ATRD
Excerpt: Chronic accumulation of polymeric pMLKL could account for progressive damage in pigmented retinas as they amass LF.

ARPE-19 cells [6] = experiment: Blue-light phototoxicity of A2E-loaded cells, AlamarBlue; assay type: cell-based, Human; conditions: A2E 5 μM O/N, blue light 10 min, viability after 24 hrs
Procedure: FIG. 18A: ARPE19 cells were pretreated for 1 hr with the […] of: eIF2a (Salubrinal (SAL), SAL003, or Guanabenz); eIF4 (Briciclib or eFT508); mTOR (Rapamycin, Torin-1); or the unspecific protein translation inhibitor (Cyclohexamide CHX) and then incubated with lethal doses of A2E (25 μM) for an additional 24 hrs in the presence of these drugs. Viability was assessed with AlamarBlue®. […] Viability was assessed with AlamarBlue®. […] ARPE-19 cells were incubated O/N with a non-toxic amount of A2E (5 μM) to allow its incorporation into lysosomes and after changing the media for PBS and irradiating for 10 min with blue light cells were maintained for an additional 24 hrs in Optimem before evaluating viability, using AlamarBlue®. FIG. 18D: Fluorescence microscopy of cells incubated with lethal amounts of A2E (25 μM) in Optimem for 24 hrs. Green fluorescence corresponds to A2E deposits. Nuclei are stained with the DNA dye, Hoechst, in viable cells (blue) and with Hoechst and DRAQ7 (a DNA dye that only enter cells with disrupted membranes) in dead cells (purple).
Blue light treatment. ARPE19 cells were grown at 70% confluence and were treated with or without 20 μM A2E in culture medium for 24 h. Then, HBSS replaced the cell culture medium before blue light treatment. ARPE19 cells with or without A2E intake, were illuminated by 460+20 nm wavelength light for 20 min.

## CC(C=CC1=C(C)CCCC1(C)C)=CC=CC(C)=Cc1cc(C=CC=C(C)C=CC2=C(C)CCCC2(C)C)cc[n+]1CCO [A2E, N-retinylidene-N-retinylethanolamine]
ARPE-19 cells [1]; light-independent
  cell death in ARPE19 cells exposed to the substance: Dose dependent cell death
Human MLKL
  induction of phosphorylation and polymerization of MLKL: dose-dependent phosphorylation and polymerization of MLKL
IRE1α [2]; in the dark, qPCR
  induction of XBP1s: dose and time-dependent inductions of XBP1s
Cathepsin D
  cathepsin-D activity: caused reduction in cathepsin-D activity
Lysosomal membranes
  lysosomal membrane permeabilization (galectin-3 puncta): clearly caused puncta staining and therefore LMP
[3]; 3 μm cut-off, same material
  passage through 3 μm filter in aqueous milieu: did cross membranes with 3 μm cut-off
[3]; 450 nm filter pores
  passage through 0.45 μm filter in aqueous milieu: could not move across 450 nm filter pores
[4]; 6 hrs treatment, 20 μM A2E
  cleavage of ATF6: significant cleavage
[4]; without light
  Ser51 phosphorylation of eIF2a: strongest Ser51 phosphorylation of eIF2a

## CC(=O)N[C@@H](CS)C(=O)O [NAC, N-acetyl cysteine]
Oxidative damage by H2O2
  prevention of oxidative damage by H2O2: effectively prevented oxidative damage by H2O2
IRE1α [5]
  light-independent phosphorylation of IRE1α induced by LF in presence of antioxidant: proceeded unaffected

## O=C(/C=C/c1ccccc1)NC(NC(=S)Nc1cccc2cccnc12)C(Cl)(Cl)Cl (stereo not shown) [Salubrinal]
ARPE-19 cells [1]; ARPE19 pretreated 1 hr, then A2E 25 μM for 24 hrs in presence of drug, AlamarBlue
  protection against lethal doses of A2E, viability: protected against lipofuscin
ARPE-19 cells [1]; with PERK inhibitor GSK2606414 or ATF4-shRNA, A2E 25 μM 24 hrs
  requirement of PERK / ATF4 for protection against lipofuscin: needs PERK but not ATF4 to exert protection against lipofuscin
pMLKL
  effect on LF-induced pMLKL plasma membrane localization: abrogated
IRE1α [2]; ARPE-19, qPCR, listed as SAL
  effect on LF-induced XBP1 splicing (XBP1s, IRE1α activity): inhibits IRE1α signaling; also recorded: abrogated
ARPE-19 cells [6]
  protection against phototoxic decomposition of lipid bisretinoids: does not protect against the phototoxic decomposition of lipid bisretinoids
